Article PMC5423977, “Safety, pharmacokinetics, and pharmacodynamics of BMS-986142, a novel reversible BTK inhibitor, in healthy participants” (European Journal of Clinical Pharmacology, 2017)
Read-outs that look alike come from different tables or passages of the source.

Tests used:
Assay type in all cases: in vivo, human
[1] = Plasma pharmacokinetics of BMS-986142, MAD; conditions: for AI_AUC geometric mean (%CV): MAD; for AI_AUC geometric mean (%CV) / AUC / Cmax / concentration at 14 day / Tmax / half-life: n = 6; for AUC / Cmax / concentration at 14 day / Tmax / half-life: human, plasma, oral; for AUC: read-out: AUC(TAU) geometric mean (%CV); for Cmax: read-out: Cmax geometric mean (%CV); for concentration at 14 day: read-out: Cmin geometric mean (%CV); for Tmax: read-out: Tmax median (min, max); for half-life: read-out: T1/2 mean (SD) (converted)
Procedure: Eligible participants were confined to the clinical facility (WCCT Global, LLC, Cypress, CA) the day before dosing (day −1) and randomized to receive SAD or MAD treatment under fasting conditions for 10 h. In the SAD group, eight healthy non-Japanese participants were assigned to each of up to six sequential dose panels (single oral doses of 5, 15, 50, 100, 300, and 900 mg BMS-986142) or placebo. Within each dose panel, participants were randomized in a 3:1 ratio to receive BMS-986142 (n = 6) or placebo (n = 2). In the MAD group, eight healthy non-Japanese participants were assigned to each of four sequential dose panels (daily oral doses of 25, 75, 200, and 350 mg BMS-986142) or placebo. Within each dose panel, participants were randomized in a 3:1 ratio to receive once-daily (QD) doses of BMS-986142 or placebo from day 1 to day 14 (Online Resource 1). Escalation to the next dose level in SAD and MAD was conducted after safety assessment had been completed and the treatment was considered safe and well tolerated. Additionally, dose levels in MAD were selected not to exceed the steady-state exposure of BMS-986142 (AUC: 22,920 ng h/mL) at NOAEL in rats obtained from a 1-month GLP toxicology study.
(§1) Blood samples for the measurement of BMS-986142 were collected up to 168 h after dosing of BMS-986142 on day 1 for participants in SAD. In MAD, blood samples were collected up to 24 h on day 1 and up to 120 h on day 14 (the last day of treatment). Blood samples for the measurement of MTX were collected up to 48 h after dosing of MTX on days 1 and 8.
(§2) Plasma samples were analyzed for BMS-986142 levels with a validated method using liquid chromatography tandem mass spectrometry (LC-MS/MS) detection. The analyte was extracted from 50 μL of plasma using a liquid–liquid extraction method. Methyl tert-butyl ether was used as the extraction solvent. The lower limit of quantification (LLOQ) was 1.00 ng/mL in plasma. Plasma samples were analyzed for methotrexate levels using LC-MS/MS detection. Analytes were isolated from 50 μL plasma through solid phase extraction using Waters Oasis MAX, 10-mg, 96-well SPE plates. The final extract was analyzed using LC-MS/MS detection. LLOQ was 1.00 ng/mL in plasma. Detailed methodology quantitating the concentration level of BMS-986142 and MTX is provided in Online Resource 10.
(§3) Individual subject pharmacokinetic parameters for BMS-986142 and MTX were derived by a non-compartmental method using validated PK software (WinNonLin version 6.3; Pharsight Corporation, Mountain View, CA, USA). The following PK parameters for BMS-986142 and MTX were derived from plasma concentration versus time data: maximum observed plasma concentration (Cmax); minimum observed plasma concentration (Cmin); time to maximum observed plasma concentration (Tmax); area under the plasma concentration-time curve from time zero to the time of the last quantifiable concentration (AUC(0-T)), from time zero extrapolated to infinite time (AUC(inf)), and in one dosing interval (AUC(TAU)); terminal plasma half-life (T1/2); and AUC accumulation index (AI_AUC). AI_AUC was calculated to divide AUC(TAU) on day 14 by AUC(TAU) on day 1.
Summary statistics were tabulated for all PK parameters by treatment and study days. Geometric mean (Gmean) and coefficient of variation (CV) are presented for Cmax, AUC(0-T), AUC(inf), AI_AUC, Cmin, and AUC(TAU); arithmetic mean and standard deviation (SD) are presented for T1/2; and median and range are presented for Tmax. Dose proportionality was assessed using the previously described power model. Briefly, the simple linear regression was applied to the natural log of the PK parameters on the natural log of dose using the following equation (Eq. 1).1 ElogPKParameterDose=α+β∗logDose.
A slope (β) equal to 1 would indicate perfect dose proportionality. For each PK parameter (Cmax, AUC(0-T), AUC(TAU), and AUC(inf)), point estimates and 90% CI of the slopes were calculated.

[2] = Effect of BMS-986142 on single-dose plasma PK of MTX (DDI); conditions: BMS-986142 350 mg QD, MTX 7.5 mg single dose
Procedure: as §1, §2, §3
Statistical analyses were conducted to assess the effect of coadministration of BMS-986142 on the PK of MTX. For all treatment comparisons, a linear mixed-effect model was fitted to the log-transformed PK parameters Cmax, AUC(0-T), and AUC(inf). Point estimates and 90% CIs for differences on the log-scale were exponentiated to obtain estimates for geometric mean ratios (GMRs) and respective 90% CIs on the original scale. Sample size determination is based on consideration of the precision of the estimate of the GMRs of AUCs of MTX with and without BMS-986142. With 9 evaluable subjects, there will be an 80% probability that the 90% CI of AUC(INF) GMR will be within 89.9 to 111.2% of the point estimate. These precision estimates are based on an assumption that Cmax and AUC(INF) of MTX are log-normally distributed with intrasubject CV of 14.67 and 10.38%, respectively, as calculated from Namour et al..

[3] = 12-lead ECG, baseline-corrected QTcF; conditions: for Maximum change from baseline in QTcF interval >30-≤60 msec / Maximum change from baseline in QTcF interval >60 msec / Maximum change from baseline in QTcF interval ≤30 msec: n = 6
Procedure: Participants were monitored for adverse events (AEs) throughout the study. Clinical laboratory tests, vital sign measurements, 12-lead ECGs, and physical examinations were performed at selected times throughout the dosing interval. Safety data was recorded in the participants’ medical records, and assessments were performed for emergent AEs or serious AEs (SAEs). For all AEs, causal relationship to the study drug was determined by an investigator. QT signals obtained from 12-lead ECGs were corrected by heart rate using Fridericia’s formula (QTcF). Baseline-corrected QTcF (∆QTcF) were evaluated to determine QT elongation.

[4] = both sexes, MAD day 14, 25 mg QD

Cc1c(-c2c(F)cc(C(N)=O)c3[nH]c4c(c23)CC[C@H](C(C)(C)O)C4)cccc1-n1c(=O)c2cccc(F)c2n(C)c1=O [BMS-986142, 6-fluoro-5-(R)-(3-(S)-(8-fluoro-1-methyl-2,4-dioxo-1,2-dihydroquinazolin-3(4H)-yl)-2-methylphenyl)-2-(S)-(2-hydroxypropan-2-yl)-2,3,4,9-tetrahydro-1H-carbazole-8-carboxamide]
Accumulation (accumulation index for AUC) ([1]; MAD 25-350 mg QD): minimal to modest accumulation | AI_AUC geometric mean (%CV) ([1]; AUC(TAU) day 14 / day 1, 25 mg QD): 1.57 (22) | AI_AUC geometric mean (%CV) ([1]; AUC(TAU) day 14 / day 1, 75 mg QD): 1.23 (31) | AI_AUC geometric mean (%CV) ([1]; AUC(TAU) day 14 / day 1, 200 mg QD): 1.23 (40) | AI_AUC geometric mean (%CV) ([1]; AUC(TAU) day 14 / day 1, 350 mg QD): 0.984 (32) | AUC [1, 4]: 539 ng·h/mL | Cmax [1, 4]: 56 ng/mL | concentration at 14 day [1, 4]: 7.85 ng/mL | Tmax [1, 4]: 2 h | half-life ([1]; MAD day 14, 25 mg QD): 10.9 h | AUC ([1]; MAD day 14, 75 mg QD): 2470 ng·h/mL | Cmax ([1]; MAD day 14, 75 mg QD): 281 ng/mL | concentration at 14 day ([1]; MAD day 14, 75 mg QD): 27.9 ng/mL | half-life ([1]; MAD day 14, 75 mg QD): 10.7 h | Tmax ([1]; MAD day 14, 75 mg QD): 2 h | AUC ([1]; MAD day 14, 200 mg QD): 5530 ng·h/mL | Cmax ([1]; MAD day 14, 200 mg QD): 592 ng/mL | concentration at 14 day ([1]; MAD day 14, 200 mg QD): 67.6 ng/mL | half-life ([1]; MAD day 14, 200 mg QD): 11 h | Tmax ([1]; MAD day 14, 200 mg QD): 2 h | AUC ([1]; MAD day 14, 350 mg QD): 10700 ng·h/mL | Cmax ([1]; MAD day 14, 350 mg QD): 1020 ng/mL | concentration at 14 day ([1]; MAD day 14, 350 mg QD): 166 ng/mL | half-life ([1]; MAD day 14, 350 mg QD): 10.2 h | Tmax ([1]; MAD day 14, 350 mg QD): 1.5 h | Effect on the pharmacokinetics of MTX [2]: did not affect the pharmacokinetics of MTX | Maximum change from baseline in QTcF interval >30-≤60 msec ([3]; MAD 25 mg): 0 N (%) | Maximum change from baseline in QTcF interval >60 msec ([3]; MAD 25 mg): 0 N (%) | Maximum change from baseline in QTcF interval ≤30 msec ([3]; MAD 25 mg): 6 (100) N (%) | Maximum change from baseline in QTcF interval >30-≤60 msec ([3]; MAD 75 mg): 0 N (%) | Maximum change from baseline in QTcF interval >60 msec ([3]; MAD 75 mg): 0 N (%) | Maximum change from baseline in QTcF interval ≤30 msec ([3]; MAD 75 mg): 6 (100) N (%) | Maximum change from baseline in QTcF interval >30-≤60 msec ([3]; MAD 200 mg): 0 N (%) | Maximum change from baseline in QTcF interval >60 msec ([3]; MAD 200 mg): 0 N (%) | Maximum change from baseline in QTcF interval ≤30 msec ([3]; MAD 200 mg): 6 (100) N (%) | Maximum change from baseline in QTcF interval >30-≤60 msec ([3]; MAD 350 mg): 0 N (%) | Maximum change from baseline in QTcF interval >60 msec ([3]; MAD 350 mg): 0 N (%) | Maximum change from baseline in QTcF interval ≤30 msec ([3]; MAD 350 mg): 6 (100) N (%) | Maximum change from baseline in QTcF interval >30-≤60 msec ([3]; SAD 5 mg): 0 N (%) | Maximum change from baseline in QTcF interval >60 msec ([3]; SAD 5 mg): 0 N (%) | Maximum change from baseline in QTcF interval ≤30 msec ([3]; SAD 5 mg): 6 (100) N (%) | Maximum change from baseline in QTcF interval >30-≤60 msec ([3]; SAD 15 mg): 0 N (%) | Maximum change from baseline in QTcF interval >60 msec ([3]; SAD 15 mg): 0 N (%) | Maximum change from baseline in QTcF interval ≤30 msec ([3]; SAD 15 mg): 6 (100) N (%) | Maximum change from baseline in QTcF interval >30-≤60 msec ([3]; SAD 50 mg): 0 N (%) | Maximum change from baseline in QTcF interval >60 msec ([3]; SAD 50 mg): 0 N (%) | Maximum change from baseline in QTcF interval ≤30 msec ([3]; SAD 50 mg): 6 (100) N (%) | Maximum change from baseline in QTcF interval >30-≤60 msec ([3]; SAD 100 mg): 0 N (%) | Maximum change from baseline in QTcF interval >60 msec ([3]; SAD 100 mg): 0 N (%) | Maximum change from baseline in QTcF interval ≤30 msec ([3]; SAD 100 mg): 6 (100) N (%) | Maximum change from baseline in QTcF interval >30-≤60 msec ([3]; SAD 300 mg): 0 N (%) | Maximum change from baseline in QTcF interval >60 msec ([3]; SAD 300 mg): 0 N (%) | Maximum change from baseline in QTcF interval ≤30 msec ([3]; SAD 300 mg): 6 (100) N (%) | Maximum change from baseline in QTcF interval >30-≤60 msec ([3]; SAD 900 mg): 0 N (%) | Maximum change from baseline in QTcF interval >60 msec ([3]; SAD 900 mg): 0 N (%) | Maximum change from baseline in QTcF interval ≤30 msec ([3]; SAD 900 mg): 6 (100) N (%) | Increase from baseline in maximum post-dose QTcF ([3]; SAD and MAD): No participants showed greater than 30 ms increase from baseline
